In patent US8486931B2, “Substituted oxindole compounds” (Abbott GmbH & Co. KG, priority 2007, dated 2013):

Target: T1, human vasopressin V1b receptor (Homo sapiens, UniProt P47901)
T1 construct: expressed in transfected cells; host or cells: CHO-K1 (cell line hV1b-3H2_CHO), membrane preparation
T1 sequence (P47901 1-424): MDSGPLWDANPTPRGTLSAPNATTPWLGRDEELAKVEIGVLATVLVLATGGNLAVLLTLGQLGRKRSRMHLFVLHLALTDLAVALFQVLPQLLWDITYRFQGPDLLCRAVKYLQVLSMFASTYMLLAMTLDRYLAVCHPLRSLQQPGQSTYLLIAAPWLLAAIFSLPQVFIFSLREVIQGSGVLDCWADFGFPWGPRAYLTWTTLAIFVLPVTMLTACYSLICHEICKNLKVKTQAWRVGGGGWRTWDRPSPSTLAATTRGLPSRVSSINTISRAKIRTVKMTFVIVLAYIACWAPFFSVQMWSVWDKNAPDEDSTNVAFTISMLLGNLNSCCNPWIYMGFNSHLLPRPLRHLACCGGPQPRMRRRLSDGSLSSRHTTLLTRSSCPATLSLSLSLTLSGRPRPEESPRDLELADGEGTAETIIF
Assay: Vasopressin V1b receptor binding assay
Settings: membranes from CHO-K1 cells with stably expressed human V1b receptors, 1.5 nM 3H-AVP displacement; with more than one stereogenic center: the diastereomer with stronger affinity
Protocol: Such compounds can be investigated in suitable assays which establish the affinity to a receptor, with the affinity constant Ki represening a measure of the potency of the compounds and a smaller value representing a larger potency. The compounds of the invention were tested in the following receptor binding assay for their affinity for the V1 b receptor.
Vasopressin V1 b Receptor Binding Assay:
The test substances were dissolved in a concentration of 10^−2 M in DMSO (dimethyl sulfoxide) and further diluted to 5×10^−4 M to 5×10^−9 M in DMSO. This series of DMSO predilutions was diluted 1:10 with assay buffer. The substance concentration was again diluted 1:5 in the assay mixture (2% DMSO in the mixture).
The membrane pellet was again homogenized and centrifuged as described and then taken up in 50 mM Tris-HCl, pH 7.4, homogenized and stored in aliquots frozen in liquid nitrogen at −190° C.
The incubation buffer was: 50 mM Tris, 10 mM MgCl2, 0.1% BSA, pH 7.4.
The nonspecific binding was determined with 1 μM AVP (Bachem #H1780). All determinations were carried out as triplicate determinations. After incubation (60 minutes at room temperature), the free radioligand was removed by vacuum filtration (Skatron cell harvester 7000) through Whatman GF/B glass fiber filter mats, and the filters were transferred into scintillation vials. The liquid scintillation measurement took place in a Tricarb model 2000 or 2200CA instrument (Packard). Conversion of the measured cpm into dpm was carried out with the aid of a standard quench series.
The binding parameters were calculated by nonlinear regression in SAS.
The above assay was used to measure the affinities of the compounds of the invention for the human vasopressin V1 b receptor and to determine with affinity constants (Ki).

| SMILES | Ki [nM] |
| --- | --- |
| CCOc1nc(Cl)ccc1C1(N2CC3CN(c4ccncc4)CC3C2)C(=O)N(S(=O)(=O)c2ccc(OC)cn2)c2ccc(C#N)cc21 (racemic) [Example 148, (±)-5-Cyano-3-(6-chloro-2-ethoxy-pyridin-3-yl)-1-(5-methoxy-pyridine-2-sulfonyl)-3-(5-pyridin-4-yl-hexahydro-pyrrolo[3,4-c]pyrrol-2-yl)-2,3-dihydro-1H-indol-2-one] | 10 to 50 |
| COc1ncccc1C1(N2CCN(c3ccncc3)CC2)C(=O)N(S(=O)(=O)c2cccc3cccnc23)c2ccc(Cl)cc21 (racemic) [Example 42, (±)-5-Chloro-3-(2-methoxypyridin-3-yl)-3-(4-pyridin-4-ylpiperazin-1-yl)-1-(quinoline-8-sulfonyl)-1,3-dihydroindol-2-one] | 10 to 50 |
| CCOc1nc(Cl)ccc1C1(N2CC3CN(c4ccnc(C)c4)CC3C2)C(=O)N(S(=O)(=O)c2ccc(OC)cn2)c2ccc(C#N)cc21 (racemic) [Example 149, (±)-5-Cyano-3-(6-chloro-2-ethoxy-pyridin-3-yl)-1-(5-methoxy-pyridine-2-sulfonyl)-3-[5-(2-methyl-pyridin-4-yl)-hexahydro-pyrrolo[3,4-c]pyrrol-2-yl]-2,3-dihydro-1H-indol-2-one] | < 10 |
| CCOc1ccc(OC)cc1C1(N2CCCN(c3ccnc(C(C)C)c3)CC2)C(=O)N(S(=O)(=O)c2ccc(OC)cn2)c2ccc(C#N)cc21 (racemic) [Example 154, (±)-5-Cyano-3-(2-ethoxy-5-methoxy-phenyl)-3-[4-(2-isopropyl-pyridin-4-yl)-[1,4]diazepan-1-yl]-1-(5-methoxy-pyridine-2-sulfonyl)-2,3-dihydro-1H-indol-2-one] | < 10 |
| CCOc1ccc(OC)cc1C1(N2CCC(N3CCNCC3)CC2)C(=O)N(S(=O)(=O)c2ccc(OC)cn2)c2ccc(C#N)cc21 (single isomer, unassigned; (+)) [Example 156, (+)-5-Cyano-3-(2-ethoxy-5-methoxy-phenyl)-1-(5-methoxy-pyridine-2-sulfonyl)-3-(4-piperazin-1-yl-piperidin-1-yl)-2,3-dihydro-1H-indol-2-one] | 10 to 50 |
| CCOc1ccccc1C1(N2CCN(c3ccncc3C)CC2)C(=O)N(S(=O)(=O)c2cccc3cccnc23)c2ccc(C#N)cc21 (racemic) [Example 15, (±)-5-Cyano-3-(2-ethoxyphenyl)-3-[4-(3-methylpyridin-4-yl)-piperazin-1-yl]-1-(quinoline-8-sulfonyl)-2,3-dihydro-1H-indol-2-one] | 10 to 50 |
| COc1nc(Cl)ccc1C1(N2CCN(c3ccncc3)CC2)C(=O)N(S(=O)(=O)c2cccc3cccnc23)c2ccc(C#N)cc21 (racemic) [Example 19, (±)-5-Cyano-3-(6-chloro-2-methoxypyridin-3-yl)-3-(4-pyridin-4-ylpiperazin-1-yl)-1-(quinoline-8-sulfonyl)-2,3-dihydro-1H-indol-2-one] | 10 to 50 |
| CCOc1ccc(OC)cc1C1(N2CCN(C3CCNCC3)CC2)C(=O)N(S(=O)(=O)c2ccc(OC)cn2)c2ccc(C#N)cc21 (racemic) [Example 172, (±)-5-Cyano-3-(2-ethoxy-5-methoxy-phenyl)-1-(5-methoxy-pyridine-2-sulfonyl)-3-(4-piperidin-4-yl-piperazin-1-yl)-2,3-dihydro-1H-indol-2-one] | < 10 |
| CCOc1ccc(OC)cc1C1(N2CCCN(c3ccnc(C)c3)CC2)C(=O)N(S(=O)(=O)c2ccc(OC)c3cccnc23)c2ccc(C#N)cc21 (racemic) [Example 73, (±)-5-Cyano-3-(2-ethoxy-5-methoxyphenyl)-1-(5-methoxyquinoline-8-sulfonyl)-3-[4-(2-methylpyridin-4-yl)-[1,4]diazepan-1-yl]-2,3-dihydro-1H-indol-2-one] | < 10 |
| CCOc1ccccc1C1(N2CCN(c3ccncc3)CC2)C(=O)N(S(=O)(=O)c2ccc(OC)cn2)c2ccc(C#N)cc21 (racemic) [Example 22, (±)-5-Cyano-3-(2-ethoxyphenyl)-1-(5-methoxypyridine-2-sulfonyl)-3-(4-pyridin-4-yl-piperazin-1-yl)-2,3-dihydro-1H-indol-2-one] | < 10 |
| CCOc1ccc(OC)cc1C1(N2CCN(c3ccnc(C)c3)CC2)C(=O)N(S(=O)(=O)c2ccc(Cl)c3cccnc23)c2ccc(C#N)cc21 (racemic) [Example 53, (±)-5-Cyano-1-(5-chloroquinoline-8-sulfonyl)-3-(2-ethoxy-5-methoxyphenyl)-3-[4-(2-methylpyridin-4-yl)piperazin-1-yl]-2,3-dihydro-1H-indol-2-one] | 10 to 50 |
| CCOc1ccc(CC)cc1C1(N2CCN(c3ccnc(C)c3)CC2)C(=O)N(S(=O)(=O)c2ccc(OC)cn2)c2ccc(C#N)cc21 (racemic) [Example 165, (±)-5-Cyano-3-(2-ethoxy-5-ethyl-phenyl)-1-(5-methoxy-pyridine-2-sulfonyl)-3-[4-(2-methyl-pyridin-4-yl)-piperazin-1-yl]-2,3-dihydro-1H-indol-2-one] | < 10 |
| COc1nc(Cl)ccc1C1(N2CCN(c3ccncc3)CC2)C(=O)N(S(=O)(=O)c2cccc3cccnc23)c2ccc(Cl)cc21 (racemic) [Example 10, (±)-5-Chloro-3-(6-chloro-2-methoxypyridin-3-yl)-3-(4-pyridin-4-ylpiperazin-1-yl)-1-(quinoline-8-sulfonyl)-1,3-dihydroindol-2-one] | < 10 |
| CCOc1ccc(C)cc1C1(N2CCN(c3ccnc(C)c3)CC2)C(=O)N(S(=O)(=O)c2ccc(OC)cn2)c2ccc(C#N)cc21 (racemic) [Example 180, (±)-5-Cyano-3-(2-ethoxy-5-methyl-phenyl)-1-(5-methoxy-pyridine-2-sulfonyl)-3-[4-(2-methyl-pyridin-4-yl)-piperazin-1-yl]-2,3-dihydro-1H-indol-2-one] | < 10 |
| COc1ccc(C)cc1C1(N2CCN(c3ccncc3)CC2)C(=O)N(S(=O)(=O)c2cccc3cccnc23)c2ccc(C#N)cc21 (racemic) [Example 51, (±)-5-Cyano-3-(2-methoxy-5-methylphenyl)-3-(4-pyridin-4-ylpiperazin-1-yl)-1-quinoline-8-sulfonyl)-2,3-dihydro-1H-indol-2-one] | < 10 |
| CCOc1ccccc1C1(N2CCN(c3ccncc3)CC2)C(=O)N(S(=O)(=O)c2ccc(F)c3cccnc23)c2ccc(C#N)cc21 (racemic) [Example 26, (±)-5-Cyano-3-(2-ethoxyphenyl)-1-(5-fluoroquinoline-8-sulfonyl)-3-(4-pyridin-4-yl-piperazin-1-yl)-2,3-dihydro-1H-indol-2-one] | 10 to 50 |
| CCOc1ccccc1C1(N2CCN(c3ccncc3)CC2)C(=O)N(S(=O)(=O)c2cccc3c(CC)ccnc23)c2ccc(C#N)cc21 (racemic) [Example 84, (±)-5-Cyano-3-(2-ethoxyphenyl)-1-(4-ethylquinoline-8-sulfonyl)-3-(4-pyridin-4-yl-piperazin-1-yl)-2,3-dihydro-1H-indol-2-one] | < 10 |
| CCOc1nc(Cl)ccc1C1(N2CC3CC2CN3c2ccncc2)C(=O)N(S(=O)(=O)c2ccc(OC)cn2)c2ccc(C#N)cc21 (racemic) [Example 155, (±)-5-Cyano-3-(6-chloro-2-ethoxy-pyridin-3-yl)-1-(5-methoxy-pyridine-2-sulfonyl)-3-((1S,4S)-5-pyridin-4-yl-2,5-diaza-bicyclo[2.2.1]hept-2-yl)-2,3-dihydro-1-2-one] | 10 to 50 |
| CCOc1ccc(OC)cc1C1(N2CCN(c3ccnc(C(C)C)c3)CC2)C(=O)N(S(=O)(=O)c2cccc3cccnc23)c2ccc(C#N)cc21 (racemic) [Example 57, (±)-5-Cyano-3-(2-ethoxy-5-methoxyphenyl)-3-[4-(2-isopropylpyridin-4-yl)piperazin-1-yl]-1-(quinoline-8-sulfonyl)-2,3-dihydro-1H-indol-2-one] | < 10 |
| CCOc1ccc(OC)cc1C1(N2CCN(c3ccncc3)CC2)C(=O)N(S(=O)(=O)c2ccc(Cl)c3cccnc23)c2ccc(C#N)cc21 (racemic) [Example 48, (±)-5-Cyano-1-(5-chloroquinoline-8-sulfonyl)-3-(2-ethoxy-5-methoxyphenyl)-3-(4-pyridin-4-ylpiperazin-1-yl)-2,3-dihydro-1H-indol-2-one] | 10 to 50 |
| CCOc1ccc(OC)cc1C1(N2CCN(c3ccncc3)CC2)C(=O)N(S(=O)(=O)c2ccc(F)c3cccnc23)c2ccc(C#N)cc21 (racemic) [Example 81, (±)-5-Cyano-3-(2-ethoxy-5-methoxyphenyl)-1-(5-fluoroquinoline-8-sulfonyl)-3-(4-pyridin-4-ylpiperazin-1-yl)-2,3-dihydro-1H-indol-2-one] | < 10 |
